Experimental data as given in patent US20260265233A1, “BENZOTHIOPHENE DERIVATIVES AS RXFP1 AGONISTS” (BRISTOL-MYERS SQUIBB COMPANY, priority 2021, published 2026).

Target: T1, human RXFP1 (Homo sapiens, UniProt Q9HBX9)
T1 construct: expressed in transfected cells
T1 sequence (Q9HBX9 1-757): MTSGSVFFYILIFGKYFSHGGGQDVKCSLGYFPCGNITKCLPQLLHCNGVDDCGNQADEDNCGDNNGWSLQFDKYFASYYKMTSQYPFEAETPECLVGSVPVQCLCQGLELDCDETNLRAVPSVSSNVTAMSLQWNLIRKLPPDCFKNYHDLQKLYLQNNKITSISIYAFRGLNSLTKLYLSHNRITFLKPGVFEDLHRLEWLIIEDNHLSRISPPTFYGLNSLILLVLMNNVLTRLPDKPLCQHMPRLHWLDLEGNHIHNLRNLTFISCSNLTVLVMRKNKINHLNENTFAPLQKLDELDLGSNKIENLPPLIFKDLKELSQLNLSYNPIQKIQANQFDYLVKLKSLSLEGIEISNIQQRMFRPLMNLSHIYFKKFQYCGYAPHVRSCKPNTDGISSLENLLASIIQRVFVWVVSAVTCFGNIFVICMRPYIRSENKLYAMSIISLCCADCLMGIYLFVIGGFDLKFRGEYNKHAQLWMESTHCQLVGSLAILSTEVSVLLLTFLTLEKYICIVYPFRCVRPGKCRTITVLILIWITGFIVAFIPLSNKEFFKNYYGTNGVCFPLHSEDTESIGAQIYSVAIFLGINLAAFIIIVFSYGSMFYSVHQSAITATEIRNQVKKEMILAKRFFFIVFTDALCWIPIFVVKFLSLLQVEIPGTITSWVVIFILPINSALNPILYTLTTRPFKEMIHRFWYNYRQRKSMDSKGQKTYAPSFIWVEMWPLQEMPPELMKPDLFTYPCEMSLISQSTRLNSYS
Assay: hRXFP1 HEK293 cAMP assay (HTRF)
Type: cell-based
Conditions: HEK293 cells stably expressing human RXFP1; 30 min at rt; intracellular cAMP by HTRF
Protocol: RXFP1 Cyclic Adenosine Monophosphate (cAMP) Assays. Human embryonic kidney cells 293 (HEK293) cells and HEK293 cells stably expressing human RXFP1, were cultured in MEM medium supplemented with 10% qualified FBS, and 300 μg/ml hygromycin (Life Technologies). Cells were dissociated and suspended in assay buffer. The assay buffer was HBSS buffer (with calcium and magnesium) containing 20 mM HEPES, 0.05% BSA, and 0.5 mM IBMX. Cells (3000 cells per well, except 1500 cell per well for HEK293 cells stably expressing human RXFP1) were added to 384-well Proxiplates (Perkin-Elmer). Cells were immediately treated with test compounds in DMSO (2% final) at final concentrations in the range of 0.010 nM to 50 μM. Cells were incubated for 30 min at rt. The level of intracellular cAMP was determined using the HTRF HiRange cAMP assay reagent kit (Cisbio) according to manufacturer's instructions. Solutions of cryptate conjugated anti-cAMP and d2 fluorophore-labelled cAMP were made in a supplied lysis buffer separately. Upon completion of the reaction, the cells were lysed with equal volume of the d2-cAMP solution and anti-cAMP solution. After a 1 h rt incubation, time-resolved fluorescence intensity was measured using the Envision (Perkin-Elmer) at 400 nm excitation and dual emission at 590 nm and 665 nm. A calibration curve was constructed with an external cAMP standard at concentrations ranging from 2.7 μM to 0.1 pM by plotting the fluorescent intensity ratio from 665 nm emission to the intensity from the 590 nm emission against cAMP concentrations. The potency and activity of a compound to […] cAMP production was then determined by fitting to a 4-parametric logistic equation from a plot of cAMP level versus compound concentrations.
The examples disclosed below were tested in the human RXFP1 (hRXFP1) HEK293 cAMP assay described above and found to have agonist activity.

Structure (SMILES)	EC50
COc1ccc(C2CCCN(CCO)CC2)cc1C(=O)Nc1c(C(=O)Nc2ccc(F)c(C(F)(F)F)c2)sc2cc(C(F)(F)F)ccc12 (single isomer, unassigned) [Example 69, N-(4-fluoro-3-(trifluoromethyl)phenyl)-3-(5-(1-(2-hydroxyethyl)azepan-4-yl)-2-methoxy-benzamido)-6-(trifluoromethyl) benzo[b] thiophene-2-carboxamide]	760 nM
COc1ccc(C2CCCN(CCO)CC2)cc1C(=O)Nc1c(C(=O)Nc2ccc(F)c(C(F)(F)F)c2)sc2cc(C(F)(F)F)ccc12 (single isomer, unassigned) [Example 72, N-(4-fluoro-3-(trifluoromethyl)phenyl)-3-(5-(1-(2-hydroxyethyl)azepan-4-yl)-2-methoxy-benzamido)-6-(trifluoromethyl) benzo[b] thiophene-2-carboxamide]	4310 nM
COc1ccc(C2CCCN(CC(N)=O)CC2)cc1C(=O)Nc1c(C(=O)Nc2ccc(F)c(C(F)(F)F)c2)sc2cc(C(F)(F)F)ccc12 (single isomer, unassigned) [Example 73, 3-(5-(1-(2-amino-2-oxoethyl)azepan-4-yl)-2-methoxy-benzamido)-N-(4-fluoro-3-(trifluoromethyl)phenyl)-6-(trifluoromethyl) benzo[b] thiophene-2-carboxamide]	1040 nM
COc1ccc(C2CCC(O)CC2)cc1C(=O)Nc1c(C(=O)Nc2ccc(F)c(C(F)(F)F)c2)sc2cc(C(F)(F)F)ccc12 (single isomer, unassigned) [Example 76, N-(4-fluoro-3-(trifluoromethyl)phenyl)-3-(5-(4-hydroxycyclo-hexyl)-2-methoxy-benzamido)-6-(trifluoromethyl) benzo[b] thiophene-2-carboxamide]	498 nM
COc1ccc(C2CCCN(CC(=O)N(C)C)C2)cc1C(=O)Nc1c(C(=O)Nc2ccc(F)c(C(F)(F)F)c2)sc2cc(C(F)(F)F)ccc12 (single isomer, unassigned) [Example 82, 3-(5-(1-(2-(dimethylamino)-2-oxoethyl)piperidin-3-yl)-2-methoxy-benzamido)-N-(4-fluoro-3-(trifluoromethyl)phenyl)-6-(trifluoromethyl) benzo[b] thiophene-2-carboxamide]	978 nM
COc1ccc(C2CCCN(CCS(C)(=O)=O)C2)cc1C(=O)Nc1c(C(=O)Nc2ccc(F)c(C(F)(F)F)c2)sc2cc(C(F)(F)F)ccc12 (single isomer, unassigned) [Example 86, N-(4-fluoro-3-(trifluoromethyl)phenyl)-3-(2-methoxy-5-(1-(2-(methylsulfonyl)ethyl)piperidin-3-yl)benzamido)-6-(trifluoromethyl) benzo[b] thiophene-2-carboxamide]	1150 nM
COc1ccc(C2CCCN(C(=O)CN(C)C)C2)cc1C(=O)Nc1c(C(=O)Nc2ccc(F)c(C(F)(F)F)c2)sc2cc(C(F)(F)F)ccc12 (single isomer, unassigned) [Example 87, 3-(5-(1-(dimethylglycyl)piperidin-3-yl)-2-methoxy-benzamido)-N-(4-fluoro-3-(trifluoromethyl)phenyl)-6-(trifluoromethyl) benzo[b] thiophene-2-carboxamide]	1160 nM
COc1ccc(C2CCCN(CC(=O)N(C)C)C2)cc1C(=O)Nc1c(C(=O)Nc2ccc(F)c(C(F)(F)F)c2)sc2cc(C(F)(F)F)ccc12 (single isomer, unassigned) [Example 101, 3-(5-(1-(2-(dimethylamino)-2-oxoethyl)piperidin-3-yl)-2-methoxy-benzamido)-N-(4-fluoro-3-(trifluoromethyl)phenyl)-6-(trifluoromethyl) benzo[b] thiophene-2-carboxamide]	4420 nM
COc1ccc(C2CCCN(C(=O)CO)C2)cc1C(=O)Nc1c(C(=O)Nc2ccc(F)c(C(F)(F)F)c2)sc2cc(C(F)(F)F)ccc12 (single isomer, unassigned) [Example 103, N-[4-fluoro-3-(trifluoromethyl)phenyl]-3-{5-[1-(2-hydroxyacetyl)piperidin-3-yl]-2-methoxy-benzamido}-6-(trifluoromethyl)-1-benzothiophene-2-carboxamide]	690 nM
COc1ccc(N2CCCC(C(C)(C)O)C2)cc1C(=O)Nc1c(C(=O)Nc2ccc(F)c(C(F)(F)F)c2)sc2cc(C(F)(F)F)ccc12 (single isomer, unassigned) [Example 107, N-(4-fluoro-3-(trifluoromethyl)phenyl)-3-(5-(3-(2-hydroxypropan-2-yl)piperidin-1-yl)-2-methoxy-benzamido)-6-(trifluoromethyl) benzo[b] thiophene-2-carboxamide]	918 nM
COc1ccc(N2CCCC(C(C)(C)O)C2)cc1C(=O)Nc1c(C(=O)Nc2ccc(F)c(C(F)(F)F)c2)sc2cc(C(F)(F)F)ccc12 (single isomer, unassigned) [Example 108, N-(4-fluoro-3-(trifluoromethyl)phenyl)-3-(5-(3-(2-hydroxypropan-2-yl)piperidin-1-yl)-2-methoxy-benzamido)-6-(trifluoromethyl) benzo[b] thiophene-2-carboxamide]	1430 nM

Stronger by EC50, values ahead:

EC50	Structure (SMILES)
469 nM	COc1ccc(C2CCCNC2)cc1C(=O)Nc1c(C(=O)Nc2ccc(F)c(C(F)(F)F)c2)sc2cc(C(F)(F)F)ccc12 (single isomer, unassigned) [Example 77, N-(4-fluoro-3-(trifluoromethyl)phenyl)-3-(2-methoxy-5-(piperidin-3-yl)benzamido)-6-(trifluoromethyl) benzo[b] thiophene-2-carboxamide]
420 nM	COc1ccc(C2CCC(O)CC2)cc1C(=O)Nc1c(C(=O)Nc2ccc(F)c(C(F)(F)F)c2)sc2cc(C(F)(F)F)ccc12 (single isomer, unassigned) [Example 75, N-(4-fluoro-3-(trifluoromethyl)phenyl)-3-(5-(4-hydroxycyclo-hexyl)-2-methoxy-benzamido)-6-(trifluoromethyl) benzo[b] thiophene-2-carboxamide]
149 nM	COc1ccc(C2CCCN(C(=O)C(C)(C)CO)C2)cc1C(=O)Nc1c(C(=O)Nc2ccc(F)c(C(F)(F)F)c2)sc2cc(C(F)(F)F)ccc12 (single isomer, unassigned) [Example 105, N-[4-fluoro-3-(trifluoromethyl)phenyl]-3-{5-[1-(3-hydroxy-2,2-dimethyl-propanoyl)piperidin-3-yl]-2-methoxy-benzamido}-6-(trifluoromethyl)-1-benzothiophene-2-carboxamide]
95.8 nM	COc1ccc(C2CCCN(C(=O)CO)C2)cc1C(=O)Nc1c(C(=O)Nc2ccc(F)c(C(F)(F)F)c2)sc2cc(C(F)(F)F)ccc12 (single isomer, unassigned) [Example 91, N-[4-fluoro-3-(trifluoromethyl)phenyl]-3-{5-[1-(2-hydroxyacetyl)piperidin-3-yl]-2-methoxy-benzamido}-6-(trifluoromethyl)-1-benzothiophene-2-carboxamide]
48.4 nM	COc1ccc(C2CCCN(C(=O)C(C)(C)CO)C2)cc1C(=O)Nc1c(C(=O)Nc2ccc(F)c(C(F)(F)F)c2)sc2cc(C(F)(F)F)ccc12 (single isomer, unassigned) [Example 93, N-[4-fluoro-3-(trifluoromethyl)phenyl]-3-{5-[1-(3-hydroxy-2,2-dimethyl-propanoyl)piperidin-3-yl]-2-methoxy-benzamido}-6-(trifluoromethyl)-1-benzothiophene-2-carboxamide]
46.8 nM	COc1ccc(C2CCCN(CC(N)=O)CC2)cc1C(=O)Nc1c(C(=O)Nc2ccc(F)c(C(F)(F)F)c2)sc2cc(C(F)(F)F)ccc12 (single isomer, unassigned) [Example 70, 3-(5-(1-(2-amino-2-oxoethyl)azepan-4-yl)-2-methoxy-benzamido)-N-(4-fluoro-3-(trifluoromethyl)phenyl)-6-(trifluoromethyl) benzo[b] thiophene-2-carboxamide]
